Columns and labels:
[1] = Transport study in a BBB cell model (bidirectional transwell permeability); assay type: in vitro ADME, Human; settings: human; for efflux ratio at 120 min: ER = Papp (BL-AP)/Papp (AP-BL), BBB cell model; for Papp B→A at 120 min: hBMEC monolayer on transwell, basolateral-to-apical, within 120 min, 37 °C, Mean ± SD, n = 3
Description: (§1) The hBMECs cells were seeded at a density of 3 × 10^5 cells per well on the transwell plates in EMC. Apical side volumes were 0.5 mL, and the medium was changed every day. Basal side volumes were 1.5 mL, and the medium was changed every other day. The medium was changed until confluent monolayers were formed. […] TEER provides information on ion current resistance across cell monolayers related to the integrity of tight junctions between cells. When the TEER reached the maximum value, the cell monolayer was used for the transport assay.
(§2) The permeability experiments were carried out bi-directionally, with working solutions containing one test component, TSI (1.25 μg/mL), DTSI (0.15 μg/mL), CTS (1.25 μg/mL), CFA (10 μg/mL), PAL (10 μg/mL), and PCTA (20 μg/mL). Aliquots of the […] compartment were collected after several time points (15, 30, 60, and 120 min) and replaced with drug-free assay buffer. The transwell plates were incubated on an orbital shaker at 37 °C for the entire experimental time. All experiments were performed in triplicate, and withdrawn samples were stored in −80 °C fridge before LC-MS/MS analysis.
(§3) For the BBB cell model, the apparent permeability coefficient, Papp in apical-to-basolateral (AP-BL) or basolateral-to-apical (BL-AP) direction, and efflux rate of each component were subsequently calculated according to the following equation: Papp = {dQ/dt} × {1/ (A × C0)},(1) where Q is the accumulation quantity of the compound in the receiver side (μg), dQ /dt is the rate of appearance of the compound in the receiver side (μg /s), C0 is the initial concentration in the donor side […], and A is the surface area of the membrane insert (cm^2). Furthermore, efflux ratios (ER) were calculated according to the following equation: ER = Papp (BL-AP)/Papp (AP-BL),(2) where Papp (BL-AP) and Papp (AP-BL) are the Papp values in the direction basolateral-to-apical and apical-to-basolateral, respectively.

[2] = test system: hBMEC cell monolayer (BBB cell model); test: as above; assay type: in vitro ADME, Human; settings: BBB cell model, within 120 min
Description: as §1, §2, §3

[3] = test system: endothelial cell monolayers; parameters: method as in PMID 17504224; settings: facilitated efflux from the abluminal side to luminal side; cited from earlier work
[4] = test system: BBB; parameters: method as in PMID 26683637; settings: cited from earlier work
[5] = Stability of analytes in HBSS (autosampler 24 h; −80 °C 15 days); assay type: physicochemical; settings: HBSS system
Description: Stability was evaluated by analyzing LQC, MQC, and HQC concentrations at autosampler for 24 h and −80 °C for 15 days with five replicates. Stability was expressed in terms of accuracy (RE) and coefficient of variation (RSD). The samples were considered stable if accuracy (RE) was within ±15% of the nominal values and precision (RSD) was less than 15%.

SMILES | efflux ratio at 120 min [1] | Papp B→A at 120 min [1] [×10⁻⁶ cm/s] | Absorption in the BBB model (class by Papp (AP-BL)) [2] | Transport of CTS in endothelial cell monolayers [3] | Effect on disruption of the BBB [4] | Stability in HBSS (in words) [5]
O=C(O)/C=C/c1ccc(O)c(O)c1 [CFA, caffeic acid] | 1.05 | 22.5 | easily absorbed | – | – | –
C[C@H]1COC2=C1C(=O)C(=O)c1c2ccc2c1CCCC2(C)C [CTS, cryptotanshinone] | 1.03 | 5.12 | moderate absorption | polarized transport | – | –
Cc1cccc2c3c(ccc12)C1=C(C(=O)C3=O)[C@@H](C)CO1 [DTS I, dihydrotanshinone I] | 0.779 | 3.62 | moderate absorption | – | – | –
O=Cc1ccc(O)c(O)c1 [PAL, protocatechuic aldehyde] | 0.805 | 12.2 | easily absorbed | – | – | –
O=C(O)c1ccc(O)c(O)c1 [PCTA, protocatechuic acid] | 0.946 | 41.3 | easily absorbed | – | – | –
Cc1coc2c1C(=O)C(=O)c1c-2ccc2c1CCCC2(C)C [TS IIA, tanshinone IIA] | 0.673 | 0.0253 | difficult to be absorbed | – | suppress disruption of the BBB | –
CCC(C)(C)C(=O)O[C@H]1C[C@@H](C)C=C2C=C[C@H](C)[C@H](CC[C@@H]3C[C@@H](O)CC(=O)O3)[C@H]21 [simvastatin] | – | – | – | – | – | very unstable

— paper PMC8838936, “Simultaneous Determination of Seven Lipophilic and Hydrophilic Components in Salvia miltiorrhiza Bunge by LC-MS/MS Method and Its Application to a Transport Study in a Blood-Brain-Barrier Cell Model” (Molecules, 2022)
